PMC9786170, “The Pharmacological Potential of Novel Melittin Variants from the Honeybee and Solitary Bees against Inflammation and Cancer” (Toxins, 2022)
Entries after “also recorded” stand apart in the source; their conditions may differ.

Legend:
RAW264.7 cells = test: NO inhibition assay (LPS-stimulated, Griess); assay type: cell-based, murine; details: RAW264.7, peptide 30 min, then 100 ng/mL LPS 24 h
Description: (§1) Figure 4 Influence of melittin derivates on inflammation-associated cell functions. (A,B) For the NO induction assay (A), RAW264.7 cells were treated with melittin peptides in the indicated concentrations for 24 h. For the NO inhibition assay (B), RAW264.7 cells were pretreated with melittin peptides in the indicated concentrations for 30 min and then stimulated with 100 ng/mL LPS for 24 h. NO was detected in the supernatant using the Griess method. […] THP-1 cell adhesion under static conditions. HUVECs were grown to confluence, preincubated with bee venoms for 30 min, and activated with TNF (10 ng/mL) for 24 h. For the leukocyte adhesion assay, untreated THP-1 cells were stained with CellTracker Green and were allowed to adhere to the treated HUVECs for 5 min. The adhesion of leukocytes onto Ecs was quantified by fluorescence measurements for all cell adhesion experiments. Data are expressed as means ± SEM, (A,B) n = 3, (C) n = 2. * p ≤ 0.05 vs. TNF (positive) control.
2 × 10^4 RAW264.7 macrophages/well were plated in a 96-well plate and cultured for 24 h at 37 °C. To investigate if the melittin peptides induce nitrogen oxide (NO) synthesis, the melittin peptides, control (DMSO), and positive control (100 ng/mL lipopolysaccharide (LPS)) were added. To evaluate the effect of melittin peptides on inhibiting NO synthesis, the cells were pre-incubated with peptides or control (DMSO) for 30 min before 100 ng/mL LPS were added. After 24 h supernatants were collected and stored at −80 °C.
NO was determined with the Griess method. Briefly, for the standard curve, different concentrations of sodium nitrite (0–50 µM) were prepared in the medium. A total of 80 µL cell supernatant or standard sample were added to a 96-well microplate and subsequently, 20 µL sulfanilamide solution (120 mg sulfanilamide in 30 mL 1 N hydrochloric acid) and 20 µL naphthylenediamine solution (180 mg N-(1-naphthyl)ethylenediamine dihydrochloride in 30 mL water) were added. After 15 min of incubation, the absorbance (540 nm) was measured with the EnSpire Plate Reader (PerkinElmer, Waltham, MA, USA). For the induction assay, the NO levels of the melittin peptides-treated samples were related to the DMSO-treated sample. For the inhibition assay, the NO levels of the melittin peptides-treated cells were correlated with the LPS-treated samples.

HEK293T cells = test: Ca2+ induction assay (Fluo-8); assay type: cell-based, human; details: Fluo-8, 0.25, 2.5, 25 µg/mL, partly already at 2.5 µg/mL, n = 4
Description: Figure 2 Melittin derivates influence cellular Ca^2+ and IP1 levels. (A) For the Ca^2+ induction assay, Fluo-8 pretreated HEK293-T cells were incubated with melittin derivates in the indicated concentrations and the fluorescence was detected. (B) For the Ca^2+ inhibition assay, Fluo-8 pretreated HEK293-T cells were incubated with peptides in the indicated concentrations for 30 min, stimulated with 5 µM ionomycin, and the fluorescence was detected. (C) IP3 has a short lifetime and is rapidly degraded to IP1; therefore, IP1 was determined. For the IP1/IP3 induction assay (left panel), HEK293T cells were incubated with melittin peptides in the indicated concentration for 2 h, a detection reagent was added, and the fluorescence resonance energy transfer signal was detected. For the IP1/IP3 inhibition assay (right panel), HEK293T cells were incubated with melittin peptides in the indicated concentration for 30 min and stimulated with 20 µM ionomycin for 1.5 h. After the addition of the detection reagent, the fluorescence resonance energy transfer signal was detected. Data are expressed as mean ± SEM. (A, B, C (left)) n = 4, (C (right)) n = 3. * p ≤ 0.05 versus control.
For analysis, 5 × 10^4 HEK293 cells or 2 × 10^4 MDA-MB-231 cells were seeded in a 96-well poly-D-lysine plate, incubated at 37 °C for 24 h, and treated with 4 µM Fluo-8-AM in HBSS for 1 h at 37 °C. After 1 h, the Fluo-8/HBSS was replaced by 100 µL HBSS. Five images per second were taken using an ImageXpress Micro Confocal High Content Imaging System (Molecular Device, San Jose, CA, USA). Melittin peptides (0.25, 2.5, and 25 µg/mL), DMSO (negative control), or 5 µM ionomycin (Sigma Aldrich; Taufkirchen, Germany) (positive control) were added to the cells. For the next 20 s, an image was obtained every second. For the inhibition assay, the peptide-treated samples (30 min) were treated with 5 µM ionomycin and for the next 20 s, an image was obtained every second. The data were analyzed with the MetaXpress Software Version 6 (Molecular Devices, San Jose, CA, USA). A threshold of fluorescence intensity was defined using cells before treatment, and all cells with a fluorescence signal above the threshold level were counted. For the induction assay, the number of cells above the threshold in the toxin-treated samples were related to the cells in the DMSO-treated sample. For the inhibition assay, the number of cells above the threshold in the melittin-treated samples were related to the cells in the ionomycin-treated sample.

[1] = system: TNF-activated EC monolayer; test: Adhesion of THP-1 leukocytes onto TNF-activated endothelial cells; assay type: cell-based, human; details: peptide 30 min, TNF 10 ng/mL 24 h, THP-1 adhesion 5 min, static, fluorescence, n = 2
Description: as §1
For the investigation of leukocyte adhesion under static conditions, HMEC-1 cells were seeded into 96-well plates and cultured until they became confluent. […] Then, the fluorescence signal from adherent THP-1 cells was measured by a Tecan Infinite F200 Pro microplate reader (Tecan, Männedorf, Switzerland) (excitation: 485 nm, emission: 535 nm).

Substance	inhibition of LPS-induced NO synthesis (RAW264.7 cells; n = 3, listed as Melittin)	inhibition of LPS-induced NO synthesis (RAW264.7 cells; n = 3, listed as melittin)	induction of Ca2+ release (HEK293T cells)	adhesion of THP-1 leukocytes onto endothelial cells [1]	inhibition of LPS-induced NO synthesis (RAW264.7 cells; n = 3)
melittin [Melt, reference compound]	prevent the LPS-induced NO release	prevented LPS-induced NO synthesis in a concentration-dependent manner	induced a significant release of Ca^2+; also recorded: induce Ca^2+ release		
xylopin [Xac4]			induce Ca^2+ release	reducing the inflammation-associated interaction of endothelial cells with leukocytes	prevented LPS-induced NO synthesis in a concentration-dependent manner; also recorded: reducing the inflammation-associated interaction of endothelial cells with leukocytes and NO synthesis
